Results reported in patent US11925632B2, “Isoquinoline derivatives for use in treating GLUT1 deficiency syndrome” (GLIAPHARM SA, priority 2019, dated 2024).

Tests used:
Assay type in all cases: cell-based
astrocytes = test: Extracellular medium acidification (SNARF5) assay in astrocytes; details: Mus musculus, Astrocyte, 1.5 h; astrocytes in vitro, 90 min stimulation, 10 nM to 30 μM
Method: Secretion of lactate was measured indirectly through the acidification of extracellular medium using extracellular pH sensor SNARE-5F-(AND-6)-CAR (SNARF5) as described below.
Secretion of lactate was measured indirectly through the acidification of extracellular medium using extracellular pH sensor […] (SNARF5). After washing cells twice with stimulation medium (DMEM (D5030, Sigma), 1 mM […], and 5 mM Glucose, pH 7.4) at 37° C., cells were stimulated with compounds at a final concentration ranging from 10 nM to 30 μM in 50 μl per well of stimulation medium supplemented with 10 μM of SNARF5 (Life Technologies Corporation). Each compound was tested in two different plates for duplicates. After 90 min stimulation, fluorescence was read at exc. (excitation) 480 nm/emm. (emission) 580 nm and at exc 480 nm/emm. 630 nm. The ratio of fluorescence between 630 nm and 580 emission values, which is proportional to extracellular pH, was calculated. In each plate, 8 wells were used for negative controls (DMSO 0.1%) and 8 wells were used for positive controls (CCCP 2 μM in DMSO).
Table 3 below lists compounds that are active on the extracellular medium acidification (SNARF5) assay in astrocytes in vitro, which indicates their ability to produce lactate. ‘+’ indicates activity of compounds with EC50>5 μM; ‘++’ indicates activity of compounds with EC50<5 μM.
(§1) Primary cultures of cerebrocortical astrocytes were obtained from 1 to 2-day-old OF1 mouse pups (Charles River). Briefly, cortices were isolated and minced in small pieces under a dissecting microscope. The cells were incubated for 30 min at 37° C. in a solution containing 20 U/ml papain, 1 mM L-cysteine and 10 kU/ml DNase I. After dissociation, papain activity was stopped by the addition of fetal calf serum (FCS). Single-cell suspension was then obtained by mechanical dissociation, which consisted in cells trituration in a DMEM D7777 medium supplemented with 44 mm NaHCO3, 10 ml/L antibiotic/antimycotic solution and 10% FCS. The cells were seeded at an average density of ˜10′000 cells/cm^2 on poly-D-lysine coated 96- or 12-well culture plates, depending on their use, and grown in DMEM D7777 medium supplemented with 44 mm NaHCO3, 10 ml/L antibiotic/antimycotic solution and 10% FCS at 37° C. in a humidified atmosphere containing 5% CO2/95% air. Culture medium was renewed twice a week. Cells were stimulated and harvested between DIV14 and DIV17, when confluence and cell growth were optimal.

primary mouse astrocytes = test: Extracellular lactate quantification (lactate release from primary astrocytes); details: Astrocyte, 1.5 h; for EC50: primary mouse astrocytes, 90 min stimulation, read-out: EC50 of astrocyte-mediated lactate secretion; for Emax: Mus musculus, positive control CCCP 2 μM, 90 min, read-out: Maximal effect on lactate secretion compared to the effect of the positive control (100%)
Method: as §1
Secretion of L-lactate was measured in the extracellular medium of 96-well plated astrocytes after 90 min stimulation (at 37° C., in 5% CO2/95% air conditions) with Vehicle (DMSO), the compounds of the invention (100 nM to 100 μM) or positive control. […] Stimulation medium was composed of D5030 medium complemented with 5 mM D-glucose and 44 mM sodium bicarbonate, pH 7.2. To quantify lactate concentrations in the extracellular medium, 200 μl of a 0.2M Glycine-semicarbazide buffer (pH 10) containing 3 mM NAD and 14 U/ml LDH was added to each well of a 96-well plate containing 30 μl aliquots of extracellular medium. Samples were incubated at 37° C. for 1 h. Fluorescence intensity (340 nm excitation/450 nm emission), which represents the amount of NADH produced, was measured, and lactate concentration values were determined relative to a standard curve of L-lactate concentrations.
The release of lactate from primary mouse astrocytes treated with compound (1) at 10 μM was quantified by (FIG. 1). Accumulation of lactate in the extracellular medium was measured over a period of 1.5 h. […] Maximal effects of the compounds were 38.6% (1), 38% (2), 31% (4) and 76% (3) when compared to the effect of the positive control (100%) for compounds (1) to (4), respectively.

primary astrocytes = test: MTT mitochondrial activity assay; details: Mus musculus, Astrocyte, 24 h treatment
Method: as §1
To monitor mitochondrial activity in astrocytes, which is linked to the metabolic process of glycolysis and production of lactate, astrocytes in 96-well plates were stimulated for 24 h (37° C. 5% CO2/95% air) with the compounds of the invention ranging from 0.2 to 200 μM.
After stimulation, 5 mg/ml thiazol blue tetrazolium bromide (MTT) in D5030 medium complemented with 5 mM D-glucose and 44 mM sodium bicarbonate (pH 7.2) was added to each well, and cells were incubated for 4 h at 37° C. (5% CO2). The medium was then removed and the amount of reduced MTT, i.e. formazan, solubilized in DMSO (50 μl/well) was determined using a spectrophotometer (absorbance of 570 nm).
The mitochondrial activity in primary astrocytes treated with Compounds (1) to (4) at concentrations ranging from 1 nM to 200 μM. After 24 h, mitochondrial activity was monitored in MTT colorimetric assay as described above (FIG. 3).

Row | Structure (SMILES) | EC50 (astrocytes) [µM] | other results
1 | COC(=O)c1ccc2c(Nc3ccc(OC(F)(F)F)cc3)nccc2c1 [Example 29, methyl 1-((4-(trifluoromethoxy)phenyl)amino)isoquinoline-6-carboxylate] | < 5 | 
2 | FC(F)(F)Oc1ccc(Nc2nccc3ccccc23)cc1 [Example 3, N-(4-(trifluoromethoxy)phenyl)isoquinolin-1-amine] | > 5 | EC50 (primary mouse astrocytes): 10.9 µM; Emax (primary mouse astrocytes): 76%; IC50 (primary astrocytes): 26.6 µM
3 | COCCOc1ccc(Nc2nccc3cc(OC)c(OC)cc23)cc1 [Example 8, 6,7-dimethoxy-N-(4-(2-methoxyethoxy)phenyl)isoquinolin-1-amine] | > 5 | 
4 | COc1ccc2c(Nc3ccc(OC(F)(F)F)cc3)nccc2c1C [Example 21, 6-methoxy-5-methyl-N-(4-(trifluoromethoxy)phenyl)isoquinolin-1-amine] | < 5 | 
5 | COc1cc2ccnc(Nc3ccc(C(F)(F)F)cc3)c2cc1OC [Example 2, 6,7-dimethoxy-N-(4-(trifluoromethyl)phenyl)isoquinolin-1-amine] | > 5 | EC50 (primary mouse astrocytes): 10.1 µM; Emax (primary mouse astrocytes): 38%; IC50 (primary astrocytes): 42.9 µM
6 | COCc1ccc(Nc2nccc3cc(OC)c(OC)cc23)cc1 [Example 9, 6,7-dimethoxy-N-(4-(methoxymethyl)phenyl)isoquinolin-1-amine] | > 5 | 
7 | COc1cc2ccnc(Nc3cccc(OC(F)F)c3)c2cc1OC [Example 16, N-(3-(difluoromethoxy)phenyl)-6,7-dimethoxyisoquinolin-1-amine] | < 5 | 
8 | COc1cc2ccnc(Nc3ccc(OC(F)(F)F)c(Cl)c3)c2cc1OC [Example 19, N-(3-chloro-4-(trifluoromethoxy)phenyl)-6,7-dimethoxyisoquinolin-1-amine] | < 5 | 
9 | COc1cc2ccnc(Nc3cccc(N(C)C)c3)c2cc1OC [Example 15, N^1-(6,7-dimethoxyisoquinolin-1-yl)-N^3,N^3-dimethylbenzene-1,3-diamine] | > 5 | 
10 | COc1ccc(Nc2nccc3cc(OC)c(OC)cc23)cc1OC [Example 5, N-(3,4-dimethoxyphenyl)-6,7-dimethoxyisoquinolin-1-amine] | > 5 | 
11 | COc1ccc2c(Nc3ccc(OC(F)(F)F)cc3)ncc(C)c2c1 [Example 24, 6-methoxy-4-methyl-N-(4-(trifluoromethoxy)phenyl)isoquinolin-1-amine] | > 5 | 
12 | COc1cc2ccnc(Nc3ccc(OC(F)(F)F)c(F)c3)c2cc1OC [Example 14, N-(3-fluoro-4-(trifluoromethoxy)phenyl)-6,7-dimethoxyisoquinolin-1-amine] | > 5 | 
13 | COc1cc2ccnc(Nc3ccc(SC)cc3)c2cc1OC [Example 18, 6,7-dimethoxy-N-(4-(methylthio)phenyl)isoquinolin-1-amine] | > 5 | 
14 | COCCc1ccc(Nc2nccc3cc(OC)c(OC)cc23)cc1 [Example 20, 6,7-dimethoxy-N-(4-(2-methoxyethyl)phenyl)isoquinolin-1-amine] | < 5 | 
15 | COc1cc2ccnc(Nc3ccc(C#N)cc3C(F)(F)F)c2cc1OC [Example 17, 4-((6,7-dimethoxyisoquinolin-1-yl)amino)-3-(trifluoromethyl)benzo-nitrite] | > 5 | 
16 | COc1ccc2c(Nc3ccc(OC(F)(F)F)cc3)ncc(Br)c2c1 [Example 25, 4-bromo-6-methoxy-N-(4-(trifluoromethoxy)phenyl)isoquinolin-1-amine] | > 5 | 
17 | COc1cc2ccnc(Nc3ccc(C)cc3)c2cc1OC [Example 6, 6,7-dimethoxy-N-(p-tolyl)isoquinolin-1-amine] | > 5 | 
18 | CN(C)c1ccc2c(Nc3ccc(OC(F)(F)F)cc3)nccc2c1 [Example 27, N^6,N^6-dimethyl-N^1-(4-(trifluoromethoxy)phenyl)isoquinoline-1,6-diamine] | < 5 | 
19 | COc1ccc2c(Nc3ccc(OC(F)(F)F)cc3)nccc2c1 [Example 12, 6-methoxy-N-(4-(trifluoromethoxy)phenyl)isoquinolin-1-amine] | > 5 | 
20 | COc1cc2ccnc(Cc3ccc(OC(F)(F)F)cc3)c2cc1OC [Example 4, 6,7-dimethoxy-1-(4-(trifluoromethoxy)benzyl)isoquinoline] | > 5 | EC50 (primary mouse astrocytes): 10.5 µM; Emax (primary mouse astrocytes): 31%; IC50 (primary astrocytes): 5.5 µM
21 | CCc1ccc2c(Nc3ccc(OC(F)(F)F)cc3)nccc2c1 [Example 30, 6-ethyl-N-(4-(trifluoromethoxy)phenyl)isoquinolin-1-amine] | < 5 | 
22 | COc1ccc(Nc2nccc3cc(OC)c(OC)cc23)cc1 [Example 7, 6,7-dimethoxy-N-(4-methoxyphenyl)isoquinolin-1-amine] | > 5 | 
23 | COc1cc2ccnc(Nc3cccc(OC(F)(F)F)c3)c2cc1OC [Example 11, 6,7-dimethoxy-N-(3-(trifluoromethoxy)phenyl)isoquinolin-1-amine] | < 5 | 
24 | COc1cc2ccnc(Nc3ccc(OC(F)(F)F)cc3F)c2cc1OC [Example 10, N-(2-fluoro-4-(trifluoromethoxy)phenyl)-6,7-dimethoxyisoquinolin-1-amine] | > 5 | 
25 | FC(F)(F)Oc1ccc(Nc2nccc3cc(Cl)ccc23)cc1 [Example 13, 6-chloro-N-(4-(trifluoromethoxy)phenyl)isoquinolin-1-amine] | > 5 | 
